Test results: patent US8198293B2, “Oxymatrine compositions and related methods for treating and preventing chronic infectious diseases” (priority 2008, dated 2012)

Key:
[1] = test system: Mycobacterium avium complex (MAC); assay: Case report: Mycobacterium avium complex infection of the lung; assay type: in vivo, human; conditions: before oxymatrine, added to four-drug therapy
Description: A person with known history of Mycobacterium avium complex (MAC) infection of the lung and bronchiectasis for several years was treated with clarithromycin, ethambutol, ciprofloxacin and rifabutin for about five years. […] Intravenous amikacin was added following right middle and left lingula lobectomy. In spite of the above therapy, sputum and repeat bronchial washing obtained by bronchoscopy grew MAC within three weeks. A computed tomography scan of the chest remained unchanged except for the post-surgical changes.
Because of persistent positive cultures despite the four drug therapies, the patient was started on oxymatrine, which they tolerated well. […] Sputum became clear in color then resolved. About two months after the start of oxymatrine, the patient had fevers, flu-like symptoms, increase in non-productive cough, bilateral uveitis and elevation of liver enzymes to 3.5 times normal values. The symptoms lasted two weeks and resolved after tapering dose of oxymatrine to 200 mg bid. Liver enzymes returned to normal within six weeks. […] The anti-MAC medications were discontinued after […] of oxymatrine therapy. The dose of oxymatrine was tapered to 100 mg tid at four and a half months of therapy and then stopped after six months of total therapy. The patient felt well at the six month follow-up.

[2] = test system: chronic enterovirus infection / chronic fatigue; assay: Case reports: treatment of chronic fatigue (Examples 2-5); assay type: in vivo, human; conditions: Example 5 patient, before oxymatrine
Description: A person with episodes of diarrhea while traveling to Tonga developed severe respiratory infection soon thereafter. The symptoms consisted of fevers to 105° F., night sweats, diffuse myalgia, tachycardia, fatigue, sinus congestion and cough, and unresponsiveness to antibiotics. The patient developed profound fatigue thereafter and went on total disability three months after the onset of symptoms. Initial Coxsackie B virus (CBV) 3, CVB4 and echovirus 9 antibody titers were 1:320, 1:160, 1:80 (normal <1:10), respectively.
The patient could not work for the next 18 months. They were started on oxymatrine at 300 mg twice a day (bid). After taking oxymatrine for two months, they were able to take short walks, but still exhausted after one hour of activity requiring five hour naps. At the end of three months of therapy, they started having fevers of 104-105° F. for several days with marked decrease in diffuse myalgia. […] CVB3, CVB4 and echovirus antibody three months after therapy were 1:160, 1:160 and 1:20, respectively.
A person who had recurrent episodes of debilitating fatigue became totally incapacitated after approximately 17 years. […] They went into remission but relapsed nine months later after developing a minor upper respiratory infection. They improved minimally after several months of bed rest, but was barely able to work six hours per day. They had brain fog, myalgia ( 7/10 pain) and was barely able to walk even 1-2 blocks.
Three days after taking oxymatrine at a dose of 300 mg bid, the myalgia intensified ( 10/10 pain), especially one hour after taking the pills. One week after starting oxymatrine, routine laboratory tests including CBC, chemistry panel and creatine phosphokinase (CPK) were normal. They continued having significant fatigue and myalgia for the next three weeks, but the symptoms resolved one week after stopping the medication. Mild increase in myalgia recurred three days after resuming oxymatrine, but resolved after continuing the medication for the next two weeks. The patient felt well at the end of three months with minimal discomfort in a few muscle groups.
Severe myalgia recurred after resuming vigorous exercise for three weeks while taking oxymatrine. They had to stop exercise for the two months allowing cessation of myalgia. After taking oxymatrine for six months, the patient felt well. Over the next six months after stopping the medication, the patient continuously performed heavy physical activities without significant difficulty. After developing another episode of upper respiratory symptoms, their symptoms relapsed. They have resumed oxymatrine but experienced increasing myalgia as the fatigue improved.
A person with a known history of frequent respiratory infections and vasovagal syncope developed respiratory infection, which was followed by bedridden fatigue. Enteroviral protein was detected in the stomach biopsy consistent with chronic enterovirus infection. […] After vigorous exercise, they would still have relapses of bedridden fatigue for one day but continued to work 10-12 hours per day for the next 12 months, walking two miles per day. Laboratory tests were normal while on therapy.
A person developed debilitating fatigue, sore throat, oral ulcers, vertigo, headaches and cognitive dysfunction two months after having a flu-like illness. […] Approximately four years later, the patient started taking oxymatrine. After an initial increase of gastrointestinal symptoms for the first two weeks, the patient tolerated 500 mg per day of oxymatrine.
The symptoms continued for two weeks and resolved after stopping oxymatrine. […] They continued to improve for 12 months after taking the medication.

[3] = test system: Coxsackievirus B myocarditis; conditions: intravenous; chronic Coxsackievirus B myocarditis; 0% in placebo group; cited from earlier work
[4] = test system: coxsackievirus B; conditions: in vitro, cell cultures; mechanism not defined; cited from earlier work

gamma interferon
benefit on persistent positive sputum culture for MAC [1]: without significant benefit

CC(C)[C@H](N)C(=O)OCCOCn1cnc2c(=O)[nH]c(N)nc21 [valacyclovir]
response of fatigue and other symptoms [2]: did not respond

O=C1CCC[C@@H]2[C@H]3CCCN4CCC[C@@H](CN12)[C@@H]34 [matrine]
patients with improvement of cardiac function, increase in lymphocyte number and function, and loss of viral markers [3]: more than 90%
growth inhibition of coxsackievirus B [4]: growth inhibition
